Test results published in PubChem BioAssay (NCI).
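Following 48 hours of exposure in 96-well plates, responses at five concentrations were used to interpolate endpoints linearly. GI50: concentration for 50% inhibition of growth. TGI is the concentration that stops growth completely.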

What was measured:
Assay in all cases: NCI-60 cell line screen, 48 h
DU-145 prostate = test system: DU-145 prostate
MCF7 breast = test system: MCF7 breast
HOP-62 NSCLC = test system: HOP-62 NSCLC
UACC-257 melanoma = test system: UACC-257 melanoma
HS 578T breast = test system: HS 578T breast
HCT-116 colon = test system: HCT-116 colon
HCC-2998 colon = test system: HCC-2998 colon
A498 renal = test system: A498 renal
SK-MEL-2 melanoma = test system: SK-MEL-2 melanoma
OVCAR-3 ovarian = test system: OVCAR-3 ovarian
HOP-92 NSCLC = test system: HOP-92 NSCLC
BT-549 breast = test system: BT-549 breast
786-0 renal = test system: 786-0 renal
A549 NSCLC = test system: A549 NSCLC
NCI-H460 lung = test system: NCI-H460 lung
M14 melanoma = test system: M14 melanoma
SN12C renal = test system: SN12C renal
RXF 393 renal = test system: RXF 393 renal
CCRF-CEM leukemia = test system: CCRF-CEM leukemia
OVCAR-5 ovarian = test system: OVCAR-5 ovarian
OVCAR-8 ovarian = test system: OVCAR-8 ovarian
SNB-19 CNS = test system: SNB-19 CNS
HL-60(TB) leukemia = test system: HL-60(TB) leukemia
OVCAR-4 ovarian = test system: OVCAR-4 ovarian
TK-10 renal = test system: TK-10 renal
CAKI-1 renal = test system: CAKI-1 renal
T-47D breast = test system: T-47D breast
LOX IMVI melanoma = test system: LOX IMVI melanoma
SF-268 CNS = test system: SF-268 CNS
SW-620 colon = test system: SW-620 colon
KM12 colon = test system: KM12 colon
ACHN renal = test system: ACHN renal
SK-OV-3 ovarian = test system: SK-OV-3 ovarian
RPMI-8226 leukemia = test system: RPMI-8226 leukemia
NCI-H522 lung = test system: NCI-H522 lung
SF-295 CNS = test system: SF-295 CNS
UO-31 renal = test system: UO-31 renal
MOLT-4 leukemia = test system: MOLT-4 leukemia
MDA-MB-435 = test system: MDA-MB-435
MDA-MB-231 breast = test system: MDA-MB-231 breast
UACC-62 melanoma = test system: UACC-62 melanoma
SR leukemia = test system: SR leukemia
U251 CNS = test system: U251 CNS
EKVX NSCLC = test system: EKVX NSCLC
NCI-H226 lung = test system: NCI-H226 lung
HT29 colon = test system: HT29 colon
PC-3 prostate = test system: PC-3 prostate
HCT-15 colon = test system: HCT-15 colon
SNB-75 CNS = test system: SNB-75 CNS
K-562 leukemia = test system: K-562 leukemia
IGROV1 ovarian = test system: IGROV1 ovarian
SF-539 CNS = test system: SF-539 CNS
NCI-H23 lung = test system: NCI-H23 lung
NCI/ADR-RES ovarian = test system: NCI/ADR-RES ovarian
SK-MEL-28 melanoma = test system: SK-MEL-28 melanoma
SK-MEL-5 melanoma = test system: SK-MEL-5 melanoma
MALME-3M melanoma = test system: MALME-3M melanoma
COLO 205 colon = test system: COLO 205 colon

Cc1cc(C)c(S(=O)(=O)Oc2ccccc2[N+](=O)[O-])c(C)c1 was tested, and the GI50 (DU-145 prostate) was 2.38 µM, the TGI (DU-145 prostate) was greater than 31.5 µM and the GI50 (MCF7 breast) was 2.81 µM. The TGI (MCF7 breast) was greater than 100 µM, the GI50 (HOP-62 NSCLC) was 3.33 µM and the TGI (HOP-62 NSCLC) was greater than 100 µM. It also gave a GI50 (UACC-257 melanoma) of 4.22 µM, a TGI (UACC-257 melanoma) greater than 100 µM and a GI50 (HS 578T breast) of 1.42 µM. It also gave a TGI (HS 578T breast) of 5.24 µM, a GI50 (HCT-116 colon) of 1.44 µM and a TGI (HCT-116 colon) greater than 100 µM. For the same compound, the GI50 (HCC-2998 colon) was 2.95 µM, the TGI (HCC-2998 colon) was greater than 100 µM and the GI50 (A498 renal) was 1.21 µM. It also gave a TGI (A498 renal) of 12.5 µM, a GI50 (SK-MEL-2 melanoma) of 3.41 µM and a TGI (SK-MEL-2 melanoma) greater than 100 µM. The GI50 (OVCAR-3 ovarian) was 1 µM, the TGI (OVCAR-3 ovarian) was 3.63 µM and the GI50 (HOP-92 NSCLC) was 1.98 µM. For the same compound, the TGI (HOP-92 NSCLC) was 25.4 µM, the GI50 (BT-549 breast) was 3.19 µM and the TGI (BT-549 breast) was greater than 100 µM. For the same compound, the GI50 (786-0 renal) was 5.58 µM, the TGI (786-0 renal) was greater than 100 µM and the GI50 (A549 NSCLC) was 4.19 µM. For the same compound, the TGI (A549 NSCLC) was greater than 100 µM, the GI50 (NCI-H460 lung) was 2.4 µM and the TGI (NCI-H460 lung) was greater than 100 µM. For the same compound, the GI50 (M14 melanoma) was 0.976 µM, the TGI (M14 melanoma) was greater than 26.6 µM and the GI50 (SN12C renal) was 14.7 µM. The TGI (SN12C renal) was greater than 100 µM, the GI50 (RXF 393 renal) was 2.48 µM and the TGI (RXF 393 renal) was 7.83 µM. For the same compound, the GI50 (CCRF-CEM leukemia) was 2.15 µM, the TGI (CCRF-CEM leukemia) was greater than 100 µM and the GI50 (OVCAR-5 ovarian) was 5.67 µM. The TGI (OVCAR-5 ovarian) was greater than 100 µM, the GI50 (OVCAR-8 ovarian) was 4.28 µM and the TGI (OVCAR-8 ovarian) was greater than 100 µM. It also gave a GI50 (SNB-19 CNS) of 4 µM, a TGI (SNB-19 CNS) greater than 100 µM and a GI50 (HL-60(TB) leukemia) of 0.367 µM. The TGI (HL-60(TB) leukemia) was 2.5 µM, the GI50 (OVCAR-4 ovarian) was greater than 25.1 µM and the TGI (OVCAR-4 ovarian) was greater than 100 µM. It also gave a GI50 (TK-10 renal) of 4.86 µM, a TGI (TK-10 renal) greater than 100 µM and a GI50 (CAKI-1 renal) of 0.956 µM. The TGI (CAKI-1 renal) was greater than 19.9 µM, the GI50 (T-47D breast) was 4.79 µM and the TGI (T-47D breast) was greater than 100 µM. The GI50 (LOX IMVI melanoma) was 3.33 µM, the TGI (LOX IMVI melanoma) was greater than 100 µM and the GI50 (SF-268 CNS) was 4.57 µM. For the same compound, the TGI (SF-268 CNS) was greater than 100 µM, the GI50 (SW-620 colon) was 0.583 µM and the TGI (SW-620 colon) was greater than 100 µM. It also gave a GI50 (KM12 colon) of 0.803 µM, a TGI (KM12 colon) greater than 100 µM and a GI50 (ACHN renal) of 5.56 µM. The TGI (ACHN renal) was greater than 100 µM, the GI50 (SK-OV-3 ovarian) was 2.81 µM and the TGI (SK-OV-3 ovarian) was greater than 29.2 µM. The GI50 (RPMI-8226 leukemia) was 2.54 µM, the TGI (RPMI-8226 leukemia) was greater than 100 µM and the GI50 (NCI-H522 lung) was 1.26 µM. For the same compound, the TGI (NCI-H522 lung) was 6.56 µM, the GI50 (SF-295 CNS) was 1.67 µM and the TGI (SF-295 CNS) was greater than 24.3 µM. For the same compound, the GI50 (UO-31 renal) was 3.27 µM, the TGI (UO-31 renal) was greater than 100 µM and the GI50 (MOLT-4 leukemia) was 1.39 µM. It also gave a TGI (MOLT-4 leukemia) greater than 100 µM, a GI50 (MDA-MB-435) of 0.239 µM and a TGI (MDA-MB-435) of 0.879 µM. It also gave a GI50 (MDA-MB-231 breast) of 3.7 µM, a TGI (MDA-MB-231 breast) greater than 100 µM and a GI50 (UACC-62 melanoma) of 2.46 µM. For the same compound, the TGI (UACC-62 melanoma) was greater than 100 µM, the GI50 (SR leukemia) was 0.443 µM and the TGI (SR leukemia) was greater than 100 µM. The GI50 (U251 CNS) was 2.36 µM, the TGI (U251 CNS) was greater than 100 µM and the GI50 (EKVX NSCLC) was 3.26 µM. The TGI (EKVX NSCLC) was greater than 100 µM, the GI50 (NCI-H226 lung) was 10.6 µM and the TGI (NCI-H226 lung) was greater than 100 µM. The GI50 (HT29 colon) was 0.921 µM, the TGI (HT29 colon) was greater than 100 µM and the GI50 (PC-3 prostate) was 3.31 µM. For the same compound, the TGI (PC-3 prostate) was greater than 100 µM, the GI50 (HCT-15 colon) was 1.37 µM and the TGI (HCT-15 colon) was greater than 100 µM. For the same compound, the GI50 (SNB-75 CNS) was 1.82 µM, the TGI (SNB-75 CNS) was 7.04 µM and the GI50 (K-562 leukemia) was 0.398 µM. For the same compound, the TGI (K-562 leukemia) was greater than 100 µM, the GI50 (IGROV1 ovarian) was 2.68 µM and the TGI (IGROV1 ovarian) was greater than 100 µM. It also gave a GI50 (SF-539 CNS) of 2.16 µM, a TGI (SF-539 CNS) greater than 23.1 µM and a GI50 (NCI-H23 lung) of 4.69 µM. For the same compound, the TGI (NCI-H23 lung) was greater than 100 µM, the GI50 (NCI/ADR-RES ovarian) was 1.01 µM and the TGI (NCI/ADR-RES ovarian) was greater than 27.4 µM. For the same compound, the GI50 (SK-MEL-28 melanoma) was 5.46 µM, the TGI (SK-MEL-28 melanoma) was greater than 100 µM and the GI50 (SK-MEL-5 melanoma) was 2 µM. It also gave a TGI (SK-MEL-5 melanoma) of 7.8 µM, a GI50 (MALME-3M melanoma) of 1.26 µM and a TGI (MALME-3M melanoma) greater than 100 µM. For the same compound, the GI50 (COLO 205 colon) was 2.9 µM and the TGI (COLO 205 colon) was 12.9 µM.
